Data on 1 compound can be found in patent publication US7795220B2, “Conformationally constrained parathyroid hormones with alpha-helix stabilizers” (The General Hospital Corporation, priority 2003, dated 2010).

Test [1] relates to P1R (recombinant P1R chimera) in HKRK-B28 cells. Kind of test: cAMP stimulation in HKRK-B28 cells. It is filed as cell-based, opposum/rat chimera. The source says: (§1) Cell Culture. The cell line HKRK-B28 (Takasu, H., et al., J. Bone Miner. Res. 14:11-20 (1999)) was derived from the porcine kidney cell line, LLC-PK1 by stable transfection with plasmid DNA encoding a recombinant P1R chimera comprised of the opposum P1R from the N-terminus to the mid region of TM3 and the rat P1R from the mid region of TM3 to the C-terminus. The surface density of the P1R in these cells is ˜280,000 receptors per cell. The clonal cell line LdelNt-2 was derived from LLC-PK, cells via stable transfection with a plasmid encoding P1R-delNt, a recombinant human PTH-1 receptor construct in which most of the amino-terminal extracellular domain is deleted. These cells, as well as COS-7 cells and SaOS-2-B10 cells, were cultured at […] in T-75 flasks ([…]) in Dulbecco's modified Eagle's medium (DMEM) supplemented with fetal bovine serum (10%), penicillin G (20 units/ml), streptomycin sulfate (20 μg/ml) and amphotericin B (0.05 μg/ml) in a humidified atmosphere containing 5% CO2. Stock solutions of EGTA/trypsin and antibiotics were from GLBCO; fetal bovine serum was from Hyclone Laboratories (Logan, Utah). COS-7 cells sub-cultured in 24-well plates were transfected with plasmid DNA (200 ng per well) encoding the wild-type human P1R or truncated human P1R deleted for residues (24-181) (Shimizu, M., et al., J. Biol. Chem. 275:21836-21843 (2000)) that was purified by cesium chloride/ethidium bromide density gradient centrifugation, and FuGENE 6 transfection reagent (Roche Indianapolis Ind.) according to the manufacturer's recommended procedure. All cells, in 24-well plates, were treated with fresh media and shifted to 33° C. for 12 to 24 h prior to assay.
(§2) cAMP Stimulation. Stimulation of cells with peptide analogs was performed in 24-well plates. Cells were rinsed with 0.5 mL of binding buffer (50 mM Tris-HCl, 100 mM NaCl, 5 mM KCl, 2 mM CaCl2, 5% heat-inactivated horse serum, 0.5% fetal bovine serum, adjusted to pH 7.5 with HCl) and treated with 200 μL of cAMP assay buffer (Delbecco's modified Eagle's medium containing 2 mM 3-isobutyl-1-methylxanthine, 1 mg/mL bovine serum albumin, 35 mM Hepes-NaOH, pH 7.4) and 100 μL of binding buffer containing varying amounts of peptide analog (final volume=300 μL). The medium was removed after incubation for 30 to 60 minutes at room temperature, and the cells were frozen on dry ice, lysed with 0.5 mL 50 mM HCl, and refrozen ([…]). The cAMP content of the diluted lysate was determined by radioimmunoassay. The EC50 response values were calculated using nonlinear regression (see below).
(§3) Data Calculation. Calculations were performed using Microsoft® Excel. Nonlinear regression analyses of binding and cAMP dose-response data were performed using the four-parameter equation: yp=Min+[(Max−Min)/(1+(IC50/x)^slope)]. The Excel Solver function was utilized for parameter optimization, as described previously (Carter, P. H., et al., Endocrinology 140: 4972-4981 (1999); Bowen, W. P., and Jerman, J. C., Trends in Pharmacol. Sci. 16: 413-417 (1995)). Differences between paired data sets were statistically evaluated using a one-tailed Student's t-test, assuming unequal variances for the two sets.

The target of a further test is T1, hP1R-delNt (Homo sapiens, UniProt Q03431).
T1 construct: expressed in transfected cells
T1 sequence (Q03431 with tags, fused parts or gaps limits assumed): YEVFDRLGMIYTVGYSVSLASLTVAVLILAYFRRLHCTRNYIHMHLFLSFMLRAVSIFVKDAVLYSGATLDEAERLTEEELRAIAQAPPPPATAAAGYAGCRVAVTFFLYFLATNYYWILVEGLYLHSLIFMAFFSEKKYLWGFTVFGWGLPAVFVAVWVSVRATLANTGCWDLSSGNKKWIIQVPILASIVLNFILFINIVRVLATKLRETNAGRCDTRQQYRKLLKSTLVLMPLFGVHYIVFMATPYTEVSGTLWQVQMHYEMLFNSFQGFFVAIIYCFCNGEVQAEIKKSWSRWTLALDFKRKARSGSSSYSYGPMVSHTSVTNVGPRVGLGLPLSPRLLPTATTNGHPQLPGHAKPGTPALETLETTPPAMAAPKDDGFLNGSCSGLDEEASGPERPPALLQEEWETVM
Put plainly: cAMP stimulation in LdelNt-2 cells. It is filed as cell-based.
Text: as §1, §2, §3
Agonist activities of selected analogs in cells expressing P1R-delNt were examined. This PTH-1 receptor construct lacks most of the N domain, but nevertheless mediates full agonist responses to N-terminally modified PTH analogs, and thus enables the relative roles of the receptor's N and J domains to the ligand interaction process to be evaluated. The clonal cell line LdelNT-2 was used, which was derived from LLC-PK, cells by stable transfection with a plasmid encoding the human P1R-delNt construct.

Non-standard residues stand in square brackets, D forms with d. Residues, ends and D or L forms follow the SMILES beside them. hArg = N=C(N)NCCCC[C@H](N)C(=O)O; Ac5c = NC1(C(=O)O)CCCC1; Aib = CC(C)(N)C(=O)O

On to `CC[C@H](C)[C@H](NC(=O)[C@H](CCC(=O)O)NC(=O)C(C)(C)NC(=O)[C@@H](NC(=O)C1(N)CCCC1)C(C)C)C(=O)N[C@@H](CCC(N)=O)C(=O)N[C@@H](CC(C)C)C(=O)N[C@@H](CCSC)C(=O)N[C@@H](Cc1c[nH]cn1)C(=O)N[C@@H](CCC(N)=O)C(=O)N[C@@H](CCCCNC(=N)N)C(=O)N[C@@H](C)C(=O)N[C@@H](CCCCN)C(=O)N[C@@H](Cc1c[nH]c2ccccc12)C(N)=O` [[Ac5c^1,Aib^3,M]PTH(1-14), [Ac5c^1,Aib^3,Gln^10,Har^11,Ala^12,Trp^14]PTH(1-14)NH2] (H-[Ac5c]V[Aib]EIQLMHQ[hArg]AKW-NH2), for which, in test [1], the “potency for stimulating adenylyl cyclase relative to [Aib1,3,M]PTH(1-14)” value is listed as 2 fold. The EC50 in test [1] (HKRK-B28 cells, intracellular cAMP accumulation, read-out: cAMP-stimulating potency (EC50)) worked out at 0.9 nM. Moreover, the “increase in cAMP levels relative to basal” value in test [1] (HKRK-B28 cells, peptide at 10 nM) is on record as 38 fold. For the same compound, on hP1R-delNt, the EC50 was 6.4 ± 2.3 nM, the “increase in cAMP accumulation (Emax) over basal” value turned out to be 70 fold and the “maximum cAMP response” value is 125±19 picomoles of cAMP per well.
